Active and inactive are the calls of the source. No cut-off for these calls is given here.
Experiments:
[1] = Inhibition of Cu2+-amyloid beta (1 to 40) catalyzed generation of hydroxyl radical assessed as 7-hrdroxy-CCA formation at 2 equiv preincubated for 1 hr followed by CCA addition measured over 60 mins by fluorescence assay
[2] = Inhibition of Cu2+-induced amyloid beta (1 to 40) fibril aggregation assessed as remaining fibril aggregates at 100 uM preincubated for 5 mins followed by amyloid beta (1 to 40) addition measured after 7 days at pH 6.60 by thioflavin-T fluorescence assay
[3] = molecular target: Amyloid-beta precursor protein (Homo sapiens) (UniProt P05067); test: Inhibition of self-induced amyloid beta (1 to 40) (unknown origin) fibril aggregation assessed as remaining fibril aggregates at 100 uM after 7 days at pH 6.60 by thioflavin-T fluorescence assay
Chain of Amyloid-beta precursor protein (Homo sapiens) (P05067 whole entry): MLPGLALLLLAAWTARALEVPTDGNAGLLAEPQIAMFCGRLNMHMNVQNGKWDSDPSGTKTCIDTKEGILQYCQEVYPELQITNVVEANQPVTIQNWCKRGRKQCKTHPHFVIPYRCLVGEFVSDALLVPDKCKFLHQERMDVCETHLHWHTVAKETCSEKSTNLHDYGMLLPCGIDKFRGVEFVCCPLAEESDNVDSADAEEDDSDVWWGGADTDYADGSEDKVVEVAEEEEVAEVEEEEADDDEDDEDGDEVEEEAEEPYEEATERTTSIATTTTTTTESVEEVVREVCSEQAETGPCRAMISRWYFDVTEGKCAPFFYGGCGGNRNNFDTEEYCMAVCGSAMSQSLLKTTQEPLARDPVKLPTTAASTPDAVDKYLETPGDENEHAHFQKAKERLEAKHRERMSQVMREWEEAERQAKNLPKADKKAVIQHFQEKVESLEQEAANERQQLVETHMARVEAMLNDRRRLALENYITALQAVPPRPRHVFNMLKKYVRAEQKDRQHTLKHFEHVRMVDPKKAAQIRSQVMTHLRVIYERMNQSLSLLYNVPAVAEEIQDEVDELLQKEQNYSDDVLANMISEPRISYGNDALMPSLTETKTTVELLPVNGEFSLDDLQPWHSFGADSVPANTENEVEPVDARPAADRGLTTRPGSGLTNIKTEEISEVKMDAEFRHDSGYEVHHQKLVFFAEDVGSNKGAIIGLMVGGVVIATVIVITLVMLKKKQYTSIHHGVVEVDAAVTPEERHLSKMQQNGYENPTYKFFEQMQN

[4] = Ratio of resveratrol IC50 to compound IC50 for AAPH radical scavenging activity
[5] = Toxicity in Tetrahymena thermophila assessed as reduction in cell viability after 48 hrs by MTT assay; assay type: organism-based; settings: Tetrahymena thermophila cells, read-out: LD50
[6] = Binding affinity to Mg2+ using MgSO4 at 20 uM after 5 mins by spectrophotometry
[7] = Binding affinity to Cu2+ assessed as compound-metal adduct formation
[8] = Induction of preformed Cu2+-induced amyloid beta (1 to 40) fibril aggregation at 100 uM after 4 to 12 days by turbidity assay relative to control
[9] = Ratio of resveratrol IC50 to compound IC50 for DPPH free radical scavenging activity
[10] = Antioxidant activity assessed as DPPH free radical scavenging activity after 30 mins by spectrophotometry; assay type: physicochemical
[11] = Binding affinity to Cu2+ using CuCl2 after 5 mins by spectrophotometry
[12] = Binding affinity to Ca2+ using CaCl2 at 20 uM after 5 mins by spectrophotometry
[13] = Inhibition of Cu2+-induced amyloid beta (1 to 40) fibril aggregation assessed as remaining fibril aggregates at 100 uM preincubated for 5 mins followed by amyloid beta (1 to 40) addition measured after 3 days at pH 6.60 by thioflavin-T fluorescence assay
[14] = molecular target: Amyloid-beta precursor protein (Homo sapiens) (UniProt P05067); test: Binding affinity to amyloid beta (1 to 40) (unknown origin) by tyrosine fluorimetric titration assay
[15] = Binding affinity to Zn2+ using ZnCl2 at 20 uM after 5 mins by spectrophotometry
[16] = molecular target: Amyloid-beta precursor protein (Homo sapiens) (UniProt P05067); test: Inhibition of preformed self-induced amyloid beta (1 to 40) (unknown origin) fibril aggregation assessed as remaining fibril aggregates at 100 uM after 12 days at pH 6.60 by thioflavin-T fluorescence assay
[17] = Binding affinity to Fe2+ using FeCl2 at 20 uM after 5 mins by spectrophotometry
[18] = molecular target: Amyloid-beta precursor protein (Homo sapiens) (UniProt P05067); test: Inhibition of preformed self-induced amyloid beta (1 to 40) (unknown origin) fibril aggregation assessed as remaining fibril aggregates at 100 uM after 4 days at pH 6.60 by thioflavin-T fluorescence assay
[19] = Antioxidant activity assessed as AAPH radical scavenging activity preincubated for 30 mins followed by AAPH addition measured after 60 mins by ORAC assay; assay type: physicochemical
[20] = Inhibition of Cu2+-amyloid beta (1 to 40) catalyzed generation of hydroxyl radical assessed as rate of radical formation per min at 2 equiv preincubated for 1 hr followed by CCA addition measured over 60 mins by CCA based fluorescence assay (reference value: 13 +/- 0.2 a.u.)
[21] = Binding affinity to Mn2+ using MnCl2 at 20 uM after 5 mins by spectrophotometry
[22] = molecular target: Amyloid-beta precursor protein (Homo sapiens) (UniProt P05067); test: Inhibition of self-induced amyloid beta (1 to 40) (unknown origin) fibril aggregation assessed as remaining fibril aggregates at 100 uM after 3 days at pH 6.60 by thioflavin-T fluorescence assay
[23] = Inhibition of preformed Cu2+-induced amyloid beta (1 to 40) fibril aggregation at 100 uM after 12 days by turbidity assay relative to control
[24] = molecular target: Amyloid-beta precursor protein (Homo sapiens) (UniProt P05067); test: Induction of self-induced amyloid beta (1 to 40) (unknown origin) fibril aggregation at 100 uM after 3 days by turbidity assay
[25] = Inhibition of Cu2+-induced amyloid beta (1 to 40) fibril aggregation at 100 uM preincubated for 5 mins followed by amyloid beta (1 to 40) addition measured after 18 days by turbidity assay
[26] = molecular target: Amyloid-beta precursor protein (Homo sapiens) (UniProt P05067); test: Inhibition of self-induced amyloid beta (1 to 40) (unknown origin) fibril aggregation at 100 uM after 7 to 18 days by turbidity assay
[27] = molecular target: Amyloid-beta precursor protein (Homo sapiens) (UniProt P05067); test: Induction of preformed self-induced amyloid beta (1 to 40) (unknown origin) fibril aggregation at 100 uM after 4 days by turbidity assay
[28] = Inhibition of preformed Cu2+-induced amyloid beta (1 to 40) fibril aggregation at 100 uM after 12 days by turbidity assay relative to total turbidity of amyloid beta (1 to 40) aggregates
[29] = Inhibition of Cu2+-induced amyloid beta (1 to 40) aggregation at 100 uM preincubated for 5 mins followed by amyloid beta (1 to 40) addition measured after 18 days at pH 6.60 by thioflavin-T fluorescence assay
[30] = Inhibition of preformed Cu2+-induced amyloid beta (1 to 40) fibril aggregation assessed as remaining fibril aggregates at 100 uM after 4 days at pH 6.60 by thioflavin-T fluorescence assay
[31] = molecular target: Amyloid-beta precursor protein (Homo sapiens) (UniProt P05067); test: Inhibition of preformed self-induced amyloid beta (1 to 40) (unknown origin) fibril aggregation at 100 uM after 12 days by turbidity assay relative to control
[32] = Binding affinity to Cu2+ using CuCl2 at 10 uM after 5 mins by spectrophotometric titration assay
[33] = Inhibition of preformed Cu2+-induced amyloid beta (1 to 40) fibril aggregation assessed as remaining fibril aggregates at 100 uM after 12 days at pH 6.60 by thioflavin-T fluorescence assay

Oc1c(I)cc(Cl)c2cccnc12 [CLIOQUINOL]
inhibition [1]: 87.7%
Activity [2]: 196%
Activity [3]: 112%
Ratio IC50 [4]: 0.2
LC50 at 48 h [5]: 240 µM
Activity [6]: Active
logKa [7]: 10
Activity [8]: Active
Ratio IC50 [9]: 0.4
IC50 [10]: 40.6 µM
logKa [11]: 15.6
Activity [12]: Active
Activity [13]: 250%
Ka [14]: 3.69 ×10⁵ /M
Activity [15]: Active
Activity [16]: 310%
Activity [17]: Active
Activity [18]: 170%
IC50 [19]: 9.72 µM
Activity [20]: 1.2 a.u.
Activity [21]: Active
Activity [22]: 120%

Oc1ccccc1/N=C/c1c(O)ccc2ccccc12
inhibition [1]: 100%
Activity [2]: 33.7%
Activity [3]: 13.9%
Ratio IC50 [4]: 0.1
LC50 at 48 h [5]: 158 µM
inhibition [23]: < 57%
Activity [24]: Active
Activity [6]: inactive
inhibition [25]: Active
inhibition [26]: Active
Ratio IC50 [9]: 0.5
Activity [27]: Active
IC50 [10]: 38.5 µM
logKa [11]: 14
Activity [12]: inactive
Activity [13]: 41.5%
inhibition [28]: < 22%
Ka [14]: 1.91 ×10⁵ /M
Activity [15]: inactive
Activity [16]: 26.6%
inhibition [29]: Active
Activity [30]: 66.4%
Activity [17]: inactive
Activity [18]: 36.2%
IC50 [19]: 11.5 µM
inhibition [31]: 25%
Activity [20]: 0 a.u.
Activity [32]: Active
Activity [21]: inactive
Activity [33]: 42.8%
Activity [22]: 22.6%

— ChEMBL document CHEMBL3817831, “Ionophoric polyphenols selectively bind Cu(2+), display potent antioxidant and anti-amyloidogenic properties, and are non-toxic toward Tetrahymena thermophila” (Bioorg Med Chem, 2016)
